In brackets after ≈: the same amount, converted by molar mass. Read-outs that look alike come from different tables or passages of the source.
What was measured:
S. aureus E48 [1] = experiment: microbe, parasite or virus in culture; settings: for MIC: Staphylococcus aureus, E48, read-out: MIC after 30-day serial passage
Experimental: The development of drug resistance of S. aureus E48 induced by NZX and antibiotics was conducted as described previously (Li et al., [2017]). The MICs of antibacterial agents were measured according to the MICs testing method as described above. […] Then, the MIC values of the next passage were conducted again, and the experimental procedures were repeated for 30 days. The development of drug resistance was determined by the fold changes in MICs.

S. aureus E48 [2] = experiment: MIC after cathepsin B treatment or in MHB at pH 5.0; assay type: cell-based, Staphylococcus aureus; settings: for change of MIC in phagolysosomal proteinase environment: cathepsin B 16 μg/ml, pH 5.0 buffer, 37°C, 1 h; for MIC at pH 5.0 compared to pH 7.4 (increase): MHB adjusted to pH 5.0, lysosomal acid environment
Experimental: To test the effect of phagolysosomal enzyme-cathepsin B (from bovine spleen, Sigma C7800) on the antibacterial activities of peptides, NZX was diluted to 640 μg/ml in a cathepsin buffer (5-mM L-cysteine, 20-mM sodium acetate, 1-mM EDTA, pH of 5.0) and incubated with 16 μg/ml enzyme solution at 37°C for 1 h. The MIC value of NZX against S. aureus E48 was examined. NZX without enzyme solution was set as the negative control. Additionally, to mimic the intracellular condition, the MHB medium was adjusted to a specific pH value of 5.0 to determine the MIC value of NZX against S. aureus E48 in the acidic environment (Wang et al., [2019]). In all experiments, clindamycin, linezolid, daptomycin, and ampicillin acted as antibiotic control.

S. aureus E48 [3] = experiment: Survival rate and time-killing kinetic curves; assay type: cell-based, Staphylococcus aureus; settings: for Survival rate of S. aureus E48: 1/2 × to 2 × MIC for 2 h, 1 × 10^5 CFU/ml, mean n = 3; for time to complete killing of S. aureus E48: 2 × MIC
Experimental: Survival rate and time-killing kinetic curves experiments were conducted as described previously (Li et al., [2020b]). […] After incubation at various times (0, 15, 30, 60, 90, and 120 min), a volume of 100 μl of bacterial suspension was taken out from a flask and diluted to count. All assays were conducted independently in triplicate.

S. aureus E48 [4] = experiment: MIC in physiological salt and serum media; assay type: cell-based, Staphylococcus aureus; settings: MHB adjusted to 1.25 mM CaCl2
Experimental: The physiological salt and serum stability of NZX were performed according to the previous report (Hirsch et al., [2019]).

S. aureus E48 [5] = assay type: in vivo, mouse; settings: for survival rate of the mice: 7 days, n = 6; for extension of survival time: 20 mg/kg intravenous single injection
Experimental: Each mouse was received a peritonitis by intraperitoneal injection of S. aureus E48 suspended in a PBS buffer (2 × 10^8 CFU/ml, 0.5 ml). […] After therapy, the survival conditions of the mice were recorded within 7 days.

[6] = test system: intracellular S. aureus E48 in RAW 264.7; experiment: Intracellular antibacterial activity in RAW 264.7 cells; assay type: cell-based, Staphylococcus aureus; settings: 1, 4, 16, 64 and 128 μg/ml, 24 h
Experimental: The antibacterial effects of NZX against intracellular S. aureus E48 in RAW 264.7 were determined according to a previous study (Wang et al., [2018]). The antibacterial concentrations of NZX against S. aureus E48 were set as 1, 4, 16, 64, and 128 μg/ml. Daptomycin was selected as a control because it is a polypeptide drug similar to NZX. In addition, the internalization and distribution assays of NZX in RAW 264.7 were conducted according to Wang et al. ([2019]). Briefly, RAW 264.7 cells were grown on culture dishes at 37°C for 24 h. FITC or FITC-NZX (1, 16, and 64 μg/ml) was added and incubated in the culture dishes for 24 h. The cells were washed two times with PBS and quenched by 0.04% trypan blue. Samples were analyzed by flow cytometry to determine the uptake of NZX. In distribution analysis, FITC or FITC-NZX at 64 μg/ml was added and incubated in the culture dishes for 24 h. The cells were washed two times with PBS, stained with 5 μg/ml wheat germ agglutinin (WGA)-conjugated Alexa Fluor 555 (ThermoFisher Scientific, USA) and Hoechst 33342 (ThermoFisher Scientific, USA) for 10 min, and observed by confocal microscopy (Leica TCS SP 5, Germany).

S. aureus E48 [7] = experiment: microbe, parasite or virus in culture
Experimental: (§1) The MICs of NZX and other antibacterial agents against S. aureus strains were conducted according to the Clinical Laboratory Standards Institute (Watts et al., [2013]). […] The wells containing antibiotics were set as positive controls. Negative control wells contained a PBS buffer and bacterial suspension without antibacterial agents. The MIC value was defined as the lowest concentration of antibacterial agents at which no visible bacteria were observed. All MIC assays were performed independently in triplicate.

[8] = test system: S. aureus MRSA ATCC 43300; experiment: microbe, parasite or virus in culture
Experimental: as §1

S. aureus E48 [9] = experiment: Bacterial burden in organs and peritoneal fluid, mouse peritonitis model; assay type: in vivo; settings: 20 mg/kg, 24 h
Experimental: In this study, untreated mice that received a lethal dose of S. aureus (2 × 10^8 CFU/ml, 0.5 ml) began to die at 6 to 8 h, and all died before 24 h, which made it difficult for us to obtain the samples when the therapy effects after 24 h administration were analyzed. Therefore, the mice that received half lethal doses of S. aureus E48 (1 × 10^8 CFU/ml, 0.5 ml) were conducted in the following pharmacodynamics analysis. After 24 h therapy with NZX (5, 10, and 20 mg/kg) or daptomycin (20 mg/kg), organ tissues, including livers, lungs, spleens, hearts, and kidneys, were collected, homogenated, and plated to count bacterial burden. In addition, the total number of bacteria and intracellular bacteria counts in peritoneal fluids were determined as described by Wang et al. ([2018]). Briefly, the total bacterial CFU in the peritoneal fluid were quantified before any further procedures. In addition, the collected peritoneal fluid was centrifuged and washed to obtain peritoneal macrophage, and then extracellular bacteria were killed after treatment with 50 μg/ml lysostaphin at 37°C for 30 min. The cells were washed two times by PBS and suspended with 1 ml of cold sterile water for lysis, and the lysate was used to determine the intracellular bacterial burden.

[10] = test system: S. aureus MSSA ATCC 25923; experiment: microbe, parasite or virus in culture; settings: Staphylococcus aureus, ATCC25923|MSSA
Experimental: as §1

S. aureus E48 [11] = settings: ref Yang et al., 2019, cited from earlier work
Excerpt: NZX, a variant of plectasin, has garnered interest as an ideal therapeutic drug against S. aureus because of its ability to kill intracellular bacteria and good biocompatibility (Tenland et al., [2018]; Liu et al., [2020]). […] T ...

[12] = ref Liu et al., 2020; cited from earlier work
Excerpt: However, plectasin had some limitations before clinical application, such as cytotoxicity and trypsin instability (Yang et al., [2019]). NZX (MW 4383.89 Da), a variant of plectasin with three mutation sites (D9S, M13I, and K32R), had the increased net charge (from +1 to +2) and hydrophobicity (from −0.695 to ...

[13] = design: method as in Andes et al., 2009; Brinch et al., 2009; settings: in human and mice serum, ref Andes et al., 2009, Brinch et al.; cited from earlier work
[14] = repeated exposure at sub-MIC for 30 days
[15] = 20 mg/kg intravenous single injection 2 h post-infection, 2 × 10^8 CFU/ml, 0.5 ml i.p.
[16] = 20 mg/kg intravenous two times (2 h and 8 h after infection)
[17] = 1 × 10^5 CFU/ml, 16–18 h at 37°C, 96-well microplate, daptomycin with 1.25 mM calcium chloride, triplicate
[18] = text summary over two strains: S. aureus MSSA ATCC 25923 and S. aureus E48

| Compound | change of MIC in phagolysosomal proteinase environment (S. aureus E48 [2]) | Survival rate of S. aureus E48 (S. aureus E48 [3]) | time to complete killing of S. aureus E48 (S. aureus E48 [3]) [h] | survival rate of the mice (S. aureus E48 [5]; [15]) | survival rate of the mice (S. aureus E48 [5]; [16]) | MIC (S. aureus E48 [1]) [µg/mL] | MIC at pH 5.0 compared to pH 7.4 (increase) (S. aureus E48 [2]) | extension of survival time (S. aureus E48 [5]) [days] | MIC (S. aureus E48 [7]; Staphylococcus aureus) [µg/mL] | MIC [10, 17] [µg/mL] | MIC [10, 18] [µg/mL] | MIC ([8]; Staphylococcus aureus) [µg/mL] | further results |
| --- | --- | --- | --- | --- | --- | --- | --- | --- | --- | --- | --- | --- | --- |
| CCCCCCCCCC(=O)N[C@@H](Cc1c[nH]c2ccccc12)C(=O)N[C@H](CC(N)=O)C(=O)N[C@@H](CC(=O)O)C(=O)N[C@@H]1C(=O)NCC(=O)N[C@@H](CCCN)C(=O)N[C@@H](CC(=O)O)C(=O)N[C@H](C)C(=O)N[C@@H](CC(=O)O)C(=O)NCC(=O)N[C@H](CO)C(=O)N[C@@H]([C@H](C)CC(=O)O)C(=O)N[C@@H](CC(=O)c2ccccc2N)C(=O)O[C@@H]1C [Daptomycin] | did not change | 0–83.03% | ≤ 2 | 16.7% | 100% | – | – | – | – | – | – | – | MIC after 30-day serial passage (S. aureus E48 [1]; [14]): 8 µg/mL (≈ 4.94 µM); decrease of MIC under the addition of 1.25-mM CaCl2 (S. aureus E48 [4]): 8–16 fold; reduction of intracellular S. aureus [6]: 89.74~98.53%; MIC (S. aureus E48 [7]): 1 µg/mL (≈ 0.617 µM); MIC ([8]; ATCC 43300): 0.5 µg/mL (≈ 0.309 µM); bacteria burdens of liver, lung and spleen compared with the untreated group (S. aureus E48 [9]): no obvious difference; reduction of intracellular bacteria burden in the peritoneal fluid (S. aureus E48 [9]; mean ± SD, n = 6): 0.66 ± 0.83 Log10 CFU/ml; reduction of total bacterial burden in the peritoneal fluid (S. aureus E48 [9]; mean ± SD, n = 6): 1.79 ± 1.05 Log10 CFU/ml |
| CC1(C)S[C@@H]2[C@H](NC(=O)[C@H](N)c3ccccc3)C(=O)N2[C@H]1C(=O)O [Ampicillin] | at least 4 fold | 83.21–100.31% | – | all the mice were dead | 50% | 16 (≈ 45.8 µM) | did not influence | 2 to 4 | 0.25 (≈ 0.715 µM) | 0.25 (≈ 0.715 µM) | 0.25 (≈ 0.715 µM) | 8 (≈ 22.9 µM) | – |
| plectasin | – | – | – | – | – | – | – | – | – | – | – | – | S. aureus E48 killed (S. aureus E48 [11]; 2 × MIC, within 1 h): approximately 85.85%; time to eliminate bacteria (S. aureus E48 [11]; 2 × MIC): ≤ 2 h; MIC (S. aureus E48 [11]; strain not given, compared with Table 2): 4 µg/mL; hydrophobicity [12]: −0.695; net charge [12]: +1; protein-binding degree [13]: 90% |
| CC(=O)NC[C@H]1CN(c2ccc(N3CCOCC3)c(F)c2)C(=O)O1 [Linezolid] | did not change | 94.08–99.89% | – | all the mice were dead | did not improve the survival rate | 2 (≈ 5.93 µM) | did not influence | 2 to 4 | 1 (≈ 2.96 µM) | 2 (≈ 5.93 µM) | 1 to 2 (≈ 2.96 to 5.93 µM) | 2 (≈ 5.93 µM) | increase in the MIC value after 30-day serial passage (S. aureus E48 [1]; [14]): 2 fold; lives extended (S. aureus E48 [5]; 20 mg/kg intravenous two times): 2 to 6 days |
| CCC[C@@H]1C[C@@H](C(=O)N[C@@H]([C@H]2O[C@H](SC)[C@H](O)[C@@H](O)[C@H]2O)[C@H](C)Cl)N(C)C1 [Clindamycin] | at least 4 fold | – | ≤ 2 | – | – | – | ≤ 8 fold | – | – | – | – | – | – |

From publication PMC9198545, “Pharmacokinetics and Pharmacodynamics of Fungal Defensin NZX Against Staphylococcus aureus-Induced Mouse Peritonitis Model” (Frontiers in Microbiology, 2022)
